In US10131652B2, “Pyrimidinyloxy benzene derivatives as herbicides” (E. I. DU PONT DE NEMOURS AND COMPANY, priority 2014, dated 2018):

Key:
Type in all cases: in vivo
[1] = test system: ducksalad (Heteranthera limosa); assay: Test C flooded paddy test plant response; details: Flood, 250 g ai/ha; scale of 0 to 100 where 0 is no effect and 100 is complete control; 13 to 15 days
Outline: (§1)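 2-leaf plants; flood 3 cm, cpd into paddy water; greenhouse 13–15 d; visual score vs untreated, 0 = no effect, 100 = complete control; dash = no result.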

[2] = test system: barnyardgrass (Echinochloa crus-galli); assay: Test C flooded paddy test plant response; details: Flood, 250 g ai/ha; scale of 0 to 100 where 0 is no effect and 100 is complete control; 13 to 15 days
Outline: as §1

[3] = test system: rice (Oryza sativa); assay: Test C flooded paddy test plant response; details: Flood, 250 g ai/ha; scale of 0 to 100 where 0 is no effect and 100 is complete control; 13 to 15 days
Outline: as §1

[4] = test system: small-flower umbrella sedge (Cyperus difformis); assay: Test C flooded paddy test plant response; details: Flood, 250 g ai/ha; scale of 0 to 100 where 0 is no effect and 100 is complete control; 13 to 15 days
Outline: as §1

[5] = test system: corn (Zea mays); assay: Test B pre-/postemergence plant response
Outline: (§2)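 Visual injury scores on a 0–100 scale (100 = complete control) relative to untreated plants, taken about 10 days post-treatment in greenhouse. Treatments were a directed preemergence soil spray and a postemergence spray at one- to two-leaf stage, using surfactant-containing solvent formulation.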

[6] = test system: velvetleaf (Abutilon theophrasti); assay: Test B pre-/postemergence plant response
Outline: as §2

[7] = test system: barnyardgrass (Echinochloa crus-galli); assay: Test B pre-/postemergence plant response
Outline: as §2

[8] = test system: pigweed (Amaranthus retroflexus); assay: Test B pre-/postemergence plant response
Outline: as §2

[9] = test system: morningglory (Ipomoea spp.); assay: Test B pre-/postemergence plant response
Outline: as §2

[10] = test system: large (Lg) crabgrass (Digitaria sanguinalis); assay: Test B pre-/postemergence plant response
Outline: as §2

[11] = test system: wheat (Triticum aestivum); assay: Test B pre-/postemergence plant response
Outline: as §2

[12] = test system: giant foxtail (Setaria faberii); assay: Test B pre-/postemergence plant response
Outline: as §2

[13] = 125 g ai/ha, postemergence, 0 to 100 scale, 0 no effect, 100 complete control
[14] = Postemergence, 500 g ai/ha, 0 to 100 scale (0 no effect, 100 complete control)
[15] = Preemergence, 125 g ai/ha, 0 to 100 scale where 0 is no effect and 100 is complete control
[16] = Preemergence, 500 g ai/ha, 0 to 100 scale where 0 is no effect and 100 is complete control
[17] = 500 g ai/ha, postemergence, 0 to 100 scale, 0 no effect, 100 complete control
[18] = Preemergence, 125 g ai/ha, 0 to 100 scale (0 no effect, 100 complete control)

| SMILES | Ducksalad plant response rating [1] | Barnyardgrass plant response rating [2] | Rice plant response rating [3] | Sedge, Umbrella plant response rating [4] | Plant response rating, Corn [5, 13] | Plant response rating, Corn [5, 16] | Plant response rating, Velvetleaf [6, 13] | Plant response rating, Velvetleaf [6, 16] | Plant response rating, Barnyardgrass [7, 13] | Plant response rating, Barnyardgrass [7, 16] | Plant response rating, Pigweed [8, 13] | Plant response rating, Pigweed [8, 16] | Plant response rating, Morningglory [9, 13] | Plant response rating, Morningglory [9, 16] | Plant response rating, Crabgrass, Large [10, 13] | Plant response rating, Crabgrass, Large [10, 16] | Plant response rating, Wheat [11, 13] | Plant response rating, Wheat [11, 16] | Plant response rating, Foxtail, Giant [12, 13] | Plant response rating, Foxtail, Giant [12, 16] | also measured |
| --- | --- | --- | --- | --- | --- | --- | --- | --- | --- | --- | --- | --- | --- | --- | --- | --- | --- | --- | --- | --- | --- |
| Cn1nc(C(F)(F)F)cc1-c1ccccc1Oc1ncc(Br)cn1 [Compound 30] | 0 | 0 | 0 | 0 | 0 | 0 | 10 | 0 | 0 | 0 | 0 | 30 | 0 | 0 | 0 | 20 | 0 | 0 | 0 | 10 | Plant response rating, Corn [5, 14]: 0; Plant response rating, Corn [5, 15]: 0; Plant response rating, Velvetleaf [6, 14]: 30; Plant response rating, Velvetleaf [6, 15]: 0; Plant response rating, Barnyardgrass [7, 14]: 0; Plant response rating, Barnyardgrass [7, 15]: 0; Plant response rating, Pigweed [8, 14]: 10; Plant response rating, Pigweed [8, 15]: 0; Plant response rating, Morningglory [9, 14]: 10; Plant response rating, Morningglory [9, 15]: 0; Plant response rating, Crabgrass, Large [10, 14]: 10; Plant response rating, Crabgrass, Large [10, 15]: 0; Plant response rating, Wheat [11, 14]: 0; Plant response rating, Wheat [11, 15]: 0; Plant response rating, Foxtail, Giant [12, 14]: 10; Plant response rating, Foxtail, Giant [12, 15]: 0 |
| Clc1ccc(-c2c(I)cccc2Oc2ncc(Cl)cn2)nc1 [Compound 205] | 0 | 0 | 0 | 0 | 0 | 0 | 0 | 0 | 0 | 10 | 60 | 90 | 0 | 0 | 10 | 70 | 0 | 0 | 0 | 70 | Plant response rating, Corn [5, 17]: 10; Corn plant response rating [5, 18]: 0; Plant response rating, Velvetleaf [6, 17]: 10; Velvetleaf plant response rating [6, 18]: 0; Plant response rating, Barnyardgrass [7, 17]: 10; Barnyardgrass plant response rating [7, 18]: 0; Plant response rating, Pigweed [8, 17]: 90; Pigweed plant response rating [8, 18]: 10; Plant response rating, Morningglory [9, 17]: 10; Morningglory plant response rating [9, 18]: 0; Plant response rating, Crabgrass, Large [10, 17]: 20; Crabgrass, Large plant response rating [10, 18]: 30; Plant response rating, Wheat [11, 17]: 0; Wheat plant response rating [11, 18]: 0; Plant response rating, Foxtail, Giant [12, 17]: 20; Foxtail, Giant plant response rating [12, 18]: 20 |
| N#Cc1cccc(Oc2ncc(F)cn2)c1-c1ccc(Cl)cn1 [Compound 207] | 30 | 0 | 0 | 30 | 0 | 0 | 10 | 30 | 0 | 90 | 70 | 100 | 10 | 30 | 0 | 100 | 0 | 0 | 0 | 100 | Plant response rating, Corn [5, 17]: 0; Corn plant response rating [5, 18]: 0; Plant response rating, Velvetleaf [6, 17]: 60; Velvetleaf plant response rating [6, 18]: 0; Plant response rating, Barnyardgrass [7, 17]: 70; Barnyardgrass plant response rating [7, 18]: 10; Plant response rating, Pigweed [8, 17]: 100; Pigweed plant response rating [8, 18]: 90; Plant response rating, Morningglory [9, 17]: 30; Morningglory plant response rating [9, 18]: 0; Plant response rating, Crabgrass, Large [10, 17]: 30; Crabgrass, Large plant response rating [10, 18]: 100; Plant response rating, Wheat [11, 17]: 0; Wheat plant response rating [11, 18]: 0; Plant response rating, Foxtail, Giant [12, 17]: 30; Foxtail, Giant plant response rating [12, 18]: 70 |
